Article PMC7859723 (International Journal of Biological Macromolecules, 2021)

Tests used:
3CLpro [1] = conditions: read-out: IC50, inhibition of 3CLpro activity; cited from earlier work
3CLpro [2] = conditions: cited from earlier work
[3] = retrieved from database; ref TCMSP database; cited from earlier work
SARS-CoV-2 3CLpro [4] = molecular target: T1, SARS-CoV-2 3CLpro (Severe acute respiratory syndrome coronavirus 2, UniProt P0DTD1); assay: Thermal shift assay; assay type: binding; conditions: compared with DMSO control
Water solubility = assay type: physicochemical
SARS-CoV-2 3CLpro [5] = molecular target: T1, SARS-CoV-2 3CLpro; assay: SPR binding assay on immobilized 3CLpro
SARS-CoV-2 3CLpro [6] = molecular target: T1, SARS-CoV-2 3CLpro; assay: FRET protease assay, 3CLpro enzyme activity inhibition; assay type: biochemical

SMILES | Kd (SARS-CoV-2 3CLpro [5]) [nM] | IC50 (SARS-CoV-2 3CLpro [6]) [nM] | other results
O=c1c2ccccc2[se]n1-c1ccccc1 [Ebselen] | – | – | IC50 (3CLpro [1]): 670 ± 90 nM; EC50 (3CLpro [2]): 4670 ± 800 nM
O=C(O[C@@H]1Cc2c(O)cc(O)cc2O[C@@H]1c1cc(O)c(O)c(O)c1)c1cc(O)c(O)c(O)c1 [Epigallocatechin-3-gallate, epigallocatechin-3-gallate] | – | – | OB (oral bioavailability) [3]: 55.09%; effect on thermal stability of 3CLpro (SARS-CoV-2 3CLpro [4]): altered the thermal stability of SARS-CoV-2 3CLpro in a dose-dependent manner
COc1cc(-c2oc3cc(O)cc(O)c3c(=O)c2O)ccc1O [Isorhamnetin, isorhamnetin] | – | – | water solubility (Water solubility): low water solubility
O=c1c(O)c(-c2ccc(O)cc2)oc2cc(O)cc(O)c12 [Kaempferol, kaempferol] | 1700 | > 100000 | –
O=c1cc(-c2ccc(O)c(O)c2)oc2cc(O)cc(O)c12 [Luteolin, luteolin] | 1630 | 89700 | –
O=C1C[C@@H](c2ccc(O)cc2)Oc2cc(O)cc(O)c21 [Naringenin, naringenin] | 2870 | > 100000 | –
